Reference: patent US5747466A, “3-deoxy-3-descladinose derivatives of erythromycins A and B” (Abbott Laboratories, priority 1996, dated 1998)
Read-outs that look alike come from different tables or passages of the source.

Key:
Experiment in all cases: In vitro antibacterial activity (MIC), agar dilution
[1] = test system: STAPHYLOCOCCUS AUREUS NCTC10649M; assay type: cell-based; conditions: S. aureus NCTC10649M; BHI agar, 35-37 °C, 20-24 h
[2] = test system: STAPHYLOCOCCUS AUREUS CMX 553; assay type: cell-based; conditions: S. aureus CMX 553; BHI agar, 35-37 °C, 20-24 h
[3] = test system: STAPHYLOCOCCUS AUREUS 1775; assay type: cell-based; conditions: S. aureus 1775; BHI agar, 35-37 °C, 20-24 h
EN[…] ATCC 8043 = assay type: cell-based, Enterococcus faecium; conditions: E. faecium ATCC 8043; BHI agar, 35-37 °C, 20-24 h
Procedure: Representative compounds of the present invention were assayed in vitro for antibacterial activity as follows: Twelve petri dishes containing successive aqueous dilutions of the test compound mixed with 10 mL of sterilized Brain Heart Infusion (BHI) agar (Difco 0418-01-5) were prepared. Each plate was inoculated with 1:100 (or 1:10 for slow-growing strains, such as Micrococcus and Streptococcus) dilutions of up to 32 different microorganisms, using a Steers replicator block. The inoculated plates were incubated at 35°-37° C. for 20 to 24 hours. In addition, a control plate, using BHI agar containing no test compound, was prepared and incubated at the beginning and end of each test.
An additional plate containing a compound having known susceptibility patterns for the organisms being tested and belonging to the same antibiotic class as the test compound was also prepared and incubated as a further control, as well as to provide test-to-test comparability. Erythromycin A was used for this purpose.
After incubation, each plate was examined. The minimum inhibitory concentration (MIC) was defined as the lowest concentration of drug yielding no growth, a slight haze, or sparsely isolated colonies on the inoculum spot as compared to the growth control.

[4] = test system: STREPTOCOCCUS BOVIS A-5169; assay type: cell-based; conditions: S. bovis A-5169; BHI agar, 35-37 °C, 20-24 h
ESCHERICHIA COLI JUHL = assay type: cell-based
ESCHERICHIA COLI SS = assay type: cell-based; conditions: E. coli SS; BHI agar, 35-37 °C, 20-24 h
[5] = test system: PSEUDOMONAS AERUGINOSA K799/61; assay type: cell-based; conditions: P. aeruginosa K799/61; BHI agar, 35-37 °C, 20-24 h
CANDIDA ALBICANS CCH 442 = assay type: cell-based; conditions: C. albicans CCH 442; BHI agar, 35-37 °C, 20-24 h
[6] = test system: NOCARDIA ARSTEROIDES ATCC 9970; assay type: cell-based; conditions: Nocardia ATCC 9970; BHI agar, 35-37 °C, 20-24 h
[7] = E. coli JUHL, BHI agar, 35-37 °C, 20-24 h

SMILES	minimum inhibitory concentration (MIC) [1]	minimum inhibitory concentration (MIC) [2]	minimum inhibitory concentration (MIC) [3]	minimum inhibitory concentration (MIC) (EN[…] ATCC 8043)	minimum inhibitory concentration (MIC) [4]	minimum inhibitory concentration (MIC) (ESCHERICHIA COLI JUHL; [7])	minimum inhibitory concentration (MIC) (ESCHERICHIA COLI SS)	minimum inhibitory concentration (MIC) [5]	minimum inhibitory concentration (MIC) (CANDIDA ALBICANS CCH 442)	minimum inhibitory concentration (MIC) [6]	minimum inhibitory concentration (MIC) (ESCHERICHIA COLI JUHL)
CC[C@H]1OC(=O)[C@H](C)C[C@H](C)[C@@H](O[C@@H]2O[C@H](C)C[C@H](N(C)C)[C@H]2O)[C@](C)(OC)C[C@@H](C)C(=NO)[C@H](C)[C@@H](O)[C@]1(C)O [Ex. 2]	12.5	12.5	> 100	3.1	0.78	> 100	0.78	> 100	> 100	0.02	–
CC[C@H]1OC(=O)[C@H](C)C[C@H](C)[C@@H](O[C@@H]2O[C@H](C)C[C@H](N(C)C)[C@H]2O)[C@](C)(OC)C[C@@H](C)C(=O)[C@H](C)[C@H]2OC(=O)O[C@@]21C [Ex. 3]	6.2	3.1	> 100	0.78	0.2	> 100	0.78	> 100	> 100	0.2	–
CC[C@H]1OC(=O)[C@H](C)C[C@H](C)[C@@H](O[C@@H]2O[C@H](C)C[C@H](N(C)C)[C@H]2O)[C@](C)(OC)C[C@@H](C)C(=NOCOCCOC)[C@H](C)[C@@H](O)[C@]1(C)O [Ex. 8]	0.2	0.2	> 100	0.05	0.02	50	0.2	1.56	> 100	0.05	–
CC[C@H]1OC(=O)[C@H](C)C[C@H](C)[C@@H](O[C@@H]2O[C@H](C)C[C@H](N(C)C)[C@H]2O)[C@](C)(OC)C[C@@H](C)C(=O)[C@H](C)[C@@H](O)[C@]1(C)O [Ex. 1]	6.2	25	> 100	25	0.78	> 100	0.78	> 100	> 100	1.56	–
CC[C@H]1OC(=O)[C@H](C)C[C@H](C)[C@@H](O[C@@H]2O[C@H](C)C[C@H](N(C)C)[C@H]2O)[C@](C)(OC)C[C@@H](C)C(=O)[C@H](C)[C@H]2N(CCc3ccc(Oc4ccccc4)cc3)C(=O)O[C@]12C [Ex. 5]	6.2	6.2	25	1.56	1.56	–	–	> 100	100	3.1	–
CC[C@H]1OC(=O)[C@H](C)[C@@H](O[C@H]2C[C@@](C)(OC)[C@@H](O)[C@H](C)O2)[C@H](C)[C@@H](O[C@@H]2O[C@H](C)C[C@H](N(C)C)[C@H]2O)[C@](C)(O)C[C@@H](C)C(=O)[C@H](C)[C@@H](O)[C@]1(C)O [Ery A, Erythromycin A, reference compound]	0.2	0.2	> 100	0.05	0.02	–	0.2	1.56	> 100	0.05	50
CC[C@H]1OC(=O)[C@H](C)C[C@H](C)[C@@H](O[C@@H]2O[C@H](C)C[C@H](N(C)C)[C@H]2O)[C@](C)(OC)C[C@@H](C)C(=NOC)[C@H](C)[C@@H](O)[C@]1(C)O [Ex. 6]	6.2	6.2	> 100	0.78	0.39	–	–	> 100	> 100	0.78	–
CC[C@H]1OC(=O)[C@H](C)C[C@H](C)[C@@H](O[C@@H]2O[C@H](C)C[C@H](N(C)C)[C@H]2O)[C@](C)(OC)C[C@@H](C)C(=O)[C@H](C)[C@H]2N(CCCCc3ccccc3)C(=O)O[C@]12C [Ex. 4]	1.56	1.56	50	0.39	0.02	> 100	1.56	12.5	100	3.1	–
